Measured values published in patent publication US20140303258A1, “Method of solubilizing insoluble bioactive compounds using triterpene glycosides and compositions thereof” (priority 2013, published 2014).

Legend:
[1] = Behaviour of the bioactive in distilled water at 37° C. without solubilizer; type: physicochemical; conditions: 2 grams in 200 ml distilled water, no solubilizer
Description: (§1) • A. Two beakers each containing 200 ml distilled water (37° C.) were taken. • B. To each beaker, 2 grams commercially available curcuminoids (Curcumin C3 Complex®) was added and gently mixed. […] To the first beaker, 0.35 gram of Bacopa glycosides including 25% w/w to 75% w/w of total Bacosides (Bacopin®) was added and gently mixed for about 15 minutes. […] This corresponded to a Critical Micelle Concentration (CMC) of 17.5% • D. To the second beaker, 0.40 gram of Centella glycosides including at least 8% w/w of total triterpenes (Centellin®) was added and gently mixed for about 15 minutes. […] This corresponded to Critical Micelle Concentration (CMC) of 20.0%.
(§2) • A. Five beakers each containing 200 ml distilled water at 37° C. were taken. To 3 beakers were added 2 gm of bioactive compounds forskolin (Forslean® 95%), boswellic acids (Boswellin® 70%) and pterostilbene 99% respectively. To the other 2 beakers were added 2 gm of Saw Palmetto extract 85% and Ginger Soft extract SCFE 35% respectively. […] The Critical Micelle Concentration (CMC) for each system was determined (Table A; FIGS. 3A, 3B, 3C, 3D and 3E)
(§3) • A. To a beaker containing 200 ml distilled water (37° C.) was added 2 grams of tetrahydrocurcuminoids (C3 Reduct®). […] The majority (˜70%) of tetrahydrocurcuminoids was not observable at the bottom of the beaker anymore due to formation of emulsion (FIG. 4)

[2] = type: physicochemical
Description: as §1, §2, §3

solubility in distilled water (observation) [1]	CMC % (wt/wt) [2]	Structure (SMILES)
did not go into solution	20% (wt/wt)	C=C[C@@]1(C)CC(=O)[C@]2(O)[C@@]3(C)[C@@H](O)CCC(C)(C)[C@@H]3[C@H](O)[C@H](OC(C)=O)[C@@]2(C)O1 [ForsLean 95%, forskolin]
did not go into solution	14.50% (wt/wt)	COc1cc(/C=C/c2ccc(O)cc2)cc(OC)c1 [Pterostilbene 99%, pterostilbene]
